Measurements taken from US9732097B2, “Process for the synthesis of a phosphoinositide 3-kinase inhibitor” (Incyte Corporation, priority 2015, dated 2017).

What was measured:
human JAK1 = human JAK1 (Homo sapiens, UniProt P23458); assay: In vitro JAK kinase assay (Example D, HTRF), JAK1; type: biochemical; conditions: 1 mM ATP
human JAK2 = human JAK2 (Homo sapiens (Human), UniProt O60674); assay: In vitro JAK kinase assay (Example D, HTRF), JAK2; type: biochemical; conditions: ratio of JAK2 to JAK1 IC50, 1 mM ATP
Sequence of human JAK2 (O60674 828-1132): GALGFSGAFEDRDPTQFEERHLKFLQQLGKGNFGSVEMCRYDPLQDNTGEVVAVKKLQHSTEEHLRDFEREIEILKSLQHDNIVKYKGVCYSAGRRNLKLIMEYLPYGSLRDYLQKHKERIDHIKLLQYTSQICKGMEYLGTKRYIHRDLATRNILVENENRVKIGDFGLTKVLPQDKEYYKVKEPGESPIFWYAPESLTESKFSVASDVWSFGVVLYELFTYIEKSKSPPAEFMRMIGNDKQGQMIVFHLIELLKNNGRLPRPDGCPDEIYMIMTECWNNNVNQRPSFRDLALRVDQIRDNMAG

IC50 (human JAK1) [nM]	JAK2/JAK1 (human JAK2)	Compound
< 10	>10	N#CC[C@]1(n2cc(-c3ncnc4[nH]ccc34)cn2)C[C@H](N2CCC(Oc3cc(CN4CCC[C@H]4CO)cc(C(F)(F)F)n3)CC2)C1 [compound 12, {trans-3-(4-{[4-{[(2S)-2-(hydroxymethyl)pyrrolidin-1-yl]methyl}-6-(trifluoromethyl)pyridin-2-yl]oxy}piperidin-1-yl)-1-[4-(7H-pyrrolo[2,3-d]pyrimidin-4-yl)-1H-pyrazol-1-yl]cyclobutyl}acetonitrile]
< 10	>10	N#CC[C@]1(n2cc(-c3ncnc4[nH]ccc34)cn2)C[C@H](N2CCC(Oc3cc(CN4CCC[C@@H]4CO)cc(C(F)(F)F)n3)CC2)C1 [compound 13, {trans-3-(4-{[4-{[(2R)-2-(hydroxymethyl)pyrrolidin-1-yl]methyl}-6-(trifluoromethyl)pyridin-2-yl]oxy}piperidin-1-yl)-1-[4-(7H-pyrrolo[2,3-d]pyrimidin-4-yl)-1H-pyrazol-1-yl]cyclobutyl}acetonitrile]
< 10	>10	C[C@H](NC(=O)c1cc(F)c(N2CC(CC#N)(n3cc(-c4ncnc5[nH]ccc45)cn3)C2)cc1F)C(F)(F)F [compound 16, 4-{3-(cyanomethyl)-3-[4-(7H-pyrrolo[2,3-d]pyrimidin-4-yl)-1H-pyrazol-1-yl]azetidin-1-yl}-2,5-difluoro-N-[(1S)-2,2,2-trifluoro-1-methylethyl]benzamide]
< 10	>10	N#CCC1(n2cc(-c3ncnc4[nH]ccc34)cn2)CN([C@H]2CC[C@@H](Oc3cc(CCO)nc(C(F)(F)F)n3)CC2)C1 [compound 18, {1-(cis-4-{[6-(2-hydroxyethyl)-2-(trifluoromethyl)pyrimidin-4-yl]oxy}cyclohexyl)-3-[4-(7H-pyrrolo[2,3-d]pyrimidin-4-yl)-1H-pyrazol-1-yl]azetidin-3-yl}acetonitrile]
< 10	>10	CCNCc1cc(O[C@H]2CC[C@@H](N3CC(CC#N)(n4cc(-c5ncnc6[nH]ccc56)cn4)C3)CC2)nc(C(F)(F)F)c1 [compound 19, {1-(cis-4-{[4-[(ethylamino)methyl]-6-(trifluoromethyl)pyridin-2-yl]oxy}cyclohexyl)-3-[4-(7H-pyrrolo[2,3-d]pyrimidin-4-yl)-1H-pyrazol-1-yl]azetidin-3-yl]acetonitrile]
< 10	>10	N#CCC1(n2cc(-c3ncnc4[nH]ccc34)cn2)CN([C@H]2CC[C@@H](Oc3cc(CN4CC[C@@H](O)C4)cc(C(F)(F)F)n3)CC2)C1 [compound 21, {1-(cis-4-{[4-{[(3R)-3-hydroxypyrrolidin-1-yl]methyl}-6-(trifluoromethyl)pyridin-2-yl]oxy}cyclohexyl)-3-[4-(7H-pyrrolo[2,3-d]pyrimidin-4-yl)-1H-pyrazol-1-yl]azetidin-3-yl}acetonitrile]
< 10	>10	N#CCC1(n2cc(-c3ncnc4[nH]ccc34)cn2)CN([C@H]2CC[C@@H](Oc3cc(CN4CC[C@H](O)C4)cc(C(F)(F)F)n3)CC2)C1 [compound 22, {1-(cis-4-{[4-{[(3S)-3-hydroxypyrrolidin-1-yl]methyl}-6-(trifluoromethyl)pyridin-2-yl]oxy}cyclohexyl)-3-[4-(7H-pyrrolo[2,3-d]pyrimidin-4-yl)-1H-pyrazol-1-yl]azetidin-3-yl}acetonitrile]
< 10	>10	C[C@@H](CO)NCc1cc(OC2CCN([C@H]3C[C@](CC#N)(n4cc(-c5ncnc6[nH]ccc56)cn4)C3)CC2)nc(C(F)(F)F)c1 [compound 23, {trans-3-(4-{[4-({[(1S)-2-hydroxy-1-methylethyl]amino}methyl)-6-(trifluoromethyl)pyridin-2-yl]oxy}piperidin-1-yl)-1-[4-(7H-pyrrolo[2,3-d]pyrimidin-4-yl)-1H-pyrazol-1-yl]cyclobutyl}acetonitrile]
< 10	>10	C[C@@H](O)CNCc1cc(OC2CCN([C@H]3C[C@](CC#N)(n4cc(-c5ncnc6[nH]ccc56)cn4)C3)CC2)nc(C(F)(F)F)c1 [compound 24, {trans-3-(4-{[4-({[(2R)-2-hydroxypropyl]amino}methyl)-6-(trifluoromethyl)pyridin-2-yl]oxy}piperidin-1-yl)-1-[4-(7H-pyrrolo[2,3-d]pyrimidin-4-yl)-1H-pyrazol-1-yl]cyclobutyl}acetonitrile]
< 10	>10	C[C@H](O)CNCc1cc(OC2CCN([C@H]3C[C@](CC#N)(n4cc(-c5ncnc6[nH]ccc56)cn4)C3)CC2)nc(C(F)(F)F)c1 [compound 25, {trans-3-(4-{[4-({[(2S)-2-hydroxypropyl]amino}methyl)-6-(trifluoromethyl)pyridin-2-yl]oxy}piperidin-1-yl)-1-[4-(7H-pyrrolo[2,3-d]pyrimidin-4-yl)-1H-pyrazol-1-yl]cyclobutyl}acetonitrile]
< 10	>10	N#CC[C@]1(n2cc(-c3ncnc4[nH]ccc34)cn2)C[C@H](N2CCC(Oc3cc(CCO)cc(C(F)(F)F)n3)CC2)C1 [compound 26, {trans-3-(4-{[4-(2-hydroxyethyl)-6-(trifluoromethyl)pyridin-2-yl]oxy}piperidin-1-yl)-1-[4-(7H-pyrrolo[2,3-d]pyrimidin-4-yl)-1H-pyrazol-1-yl]cyclobutyl}acetonitrile]

Continued, compound first:

Compound	IC50 (human JAK1) [nM]	JAK2/JAK1 (human JAK2)
N#CCC(C1CCN(c2cccc(Cl)n2)C1)n1cc(-c2ncnc3[nH]ccc23)cn1 (single isomer, unassigned) [compound 3, 3-[1-(6-chloropyridin-2-yl)pyrrolidin-3-yl]-3-[4-(7H-pyrrolo[2,3-d]pyrimidin-4-yl)-1H-pyrazol-1-yl]propanenitrile]	< 10	>10
C[C@@H](O)c1nc2cnc3ccsc3c2n1[C@H]1CC[C@H](CC#N)OC1 [compound 1, ((2R,5S)-5-{2-[(1R)-1-hydroxyethyl]-1H-imidazo[4,5-d]thieno[3,2-b]pyridin-1-yl}tetrahydro-2H-pyran-2-yl)acetonitrile]	< 100	>10
N#CCC(C1CCN(c2nc3cccnc3o2)C1)n1cc(-c2ncnc3[nH]ccc23)cn1 (stereo not drawn) [compound 4, 3-(1-[1,3]oxazolo[5,4-b]pyridin-2-ylpyrrolidin-3-yl)-3-[4-(7H-pyrrolo[2,3-d]pyrimidin-4-yl)-1H-pyrazol-1-yl]propanenitrile]	< 10	>10
N#CCC(CN1CCN(C(=O)c2ccc(C#N)cc2F)CC1)n1cc(-c2ncnc3[nH]ccc23)cn1 (stereo not drawn) [compound 5, 4-[(4-{3-cyano-2-[4-(7H-pyrrolo[2,3-d]pyrimidin-4-yl)-1H-pyrazol-1-yl]propyl}piperazin-1-yl)carbonyl]-3-fluorobenzonitrile]	< 10	>10
N#CCC(CN1CCN(C(=O)c2ccc(C#N)cc2F)CC1)n1ccc(-c2ncnc3[nH]ccc23)c1 (stereo not drawn) [compound 6, 4-[(4-{3-cyano-2-[3-(7H-pyrrolo[2,3-d]pyrimidin-4-yl)-1H-pyrrol-1-yl]propyl}piperazin-1-yl)carbonyl]-3-fluorobenzonitrile]	< 10	>10
N#CCC1(n2cc(-c3ncnc4[nH]ccc34)cn2)CN(C2CCN(C(=O)c3ccnc(C(F)(F)F)c3F)CC2)C1 [compound 7, {1-{1-[3-Fluoro-2-(trifluoromethyl)isonico-tinoyl]piperidin-4-yl}-3-[4-(7H-pyrrolo[2,3-d]pyrimidin-4-yl)-1H-pyrazol-1-yl]azetidin-3-yl}acetonitrile]	< 10	>10
N#CCC1(n2cc(-c3ncnc4[nH]ccc34)cn2)CN(C2CCN(C(=O)Nc3ccc(F)cc3C(F)(F)F)CC2)C1 [compound 8, 4-{3-(Cyanomethyl)-3-[4-(7H-pyrrolo[2,3-d]pyrimidin-4-yl)-1H-pyrazol-1-yl]azetidin-1-yl}-N-[4-fluoro-2-(trifluoromethyl)phenyl] piperidine-1-carboxamide]	< 10	>10
N#CCC1(n2cc(-c3ncnc4[nH]ccc34)cn2)CN(C2CCN(C(=O)c3ccnc(C(F)(F)F)n3)CC2)C1 [compound 9, [3-[4-(7H-pyrrolo[2,3-d]pyrimidin-4-yl)-1H-pyrazol-1-yl]-1-(1-{[2-(trifluoromethyl)pyrim-idin-4-yl]carbonyl}piperidin-4-yl)azetidin-3-yl]acetonitrile]	< 10	>10
N#CC[C@]1(n2cc(-c3ncnc4[nH]ccc34)cn2)C[C@H](N2CCN(C(=O)c3ccnc(C(F)(F)F)n3)CC2)C1 [compound 10, [trans-1-[4-(7H-pyrrolo[2,3-d]pyrimidin-4-yl)-1H-pyrazol-1-yl]-3-(4-{[2-(trifluoromethyl)pyrim-idin-4-yl]carbonyl}piperazin-1-yl)cyclobutyl]acetonitrile]	< 10	>10
N#CC[C@]1(n2cc(-c3ncnc4[nH]ccc34)cn2)C[C@H](N2CCC(Oc3cc(CN4CC(O)C4)cc(C(F)(F)F)n3)CC2)C1 [compound 11, {trans-3-(4-{[4-[(3-hydroxyazetidin-1-yl)methyl]-6-(trifluoromethyl)pyridin-2-yl]oxy}piperidin-1-yl)-1-[4-(7H-pyrrolo[2,3-d]pyrimidin-4-yl)-1H-pyrazol-1-yl]cyclobutyl}acetonitrile]	< 10	>10
